Experimental data from patent publication US20190054096A1, “METHODS FOR A[…] VIRULENCE” (priority 2015, published 2019).
“Also recorded” adds a separate entry of the source.

What was measured:
[1] = system: P. falciparum parasite line, 3D7; experiment: microbe, parasite or virus in culture; type: cell-based, Plasmodium falciparum; conditions: P. falciparum 3D7 blood-stages, 0.1% initial parasitemia
Description: FIG. 9 exemplifies a dose-dependent effect of CR-mimetic compounds on human P. falciparum blood-stages. Synchronized cultures were set at 0.1% initial parasitemia, treated with the various compounds and analysed by flow cytometry after SYBR Green labelling of parasite DNA at 72 hours or 96 hours post-treatment. Data (mean±sem) was […] to the untreated control on each experiment (3-5 independent experiments/compound). IC50 values were determined by GraphPad. Prism using non-linear regression variable slope (normalized) analysis. […] Data for rsv and SRT1720 was collected at 72 hours post-treatment, and 96 hours for all the other compounds.
Example 7. Dose-dependent effect of CR-mimetic compounds on human P. falciparum blood-stages. Synchronized cultures of the P. falciparum parasite line, 3D7, were set at 0.1% initial parasitemia, treated with the various compounds and analysed by flow cytometry after SYBR Green labelling of parasite DNA at 72 hours or 96 hours post-treatment. […] Data for rsv and SRT1720 were collected at 72 hours post-treatment, and 96 hours for all the other compounds.
P. falciparum 3D7 was continuously cultured in human erythrocytes at 4% hematocrit in RPMI 1640 supplemented with 0.5% Albumax II (Invitrogen), […] Hypoxanthine (Sigma) and 20 μg/ml Gentamicin (Invitrogen). Cultures were maintained at 37° C. in an atmosphere of 5% O2, 5% CO2, 90% N2, and synchronized by consecutive treatments of 5% Sorbitol (Sigma), for dose-response analysis, serial dilutions of the compounds were added to synchronized ring-stages of P. falciparum in 96-well plates. Initial parasitemia was set to 0.1% and hematocrit 2%. Parasite replication and reinvasion were assessed at the indicated time by flow cytometry based on fluorescent labelling of P. falciparum DNA. The SYBR Green I (Invitrogen) stained samples were analysed on a CyFlow® SL Blue or Accuri® BD flow cytometer and the data evaluated using FlowJo software (TreeStar) to determine the percentage of infected erythrocytes. IC50 values were calculated using GraphPad Prism.

AMPKα (pAMPKα T172) = experiment: Western blot of AMPK phosphorylation in liver homogenates; type: in vivo, C57BL/6 mice; conditions: non-infected mice, 1 hr after injection, vs vehicle
Source text: Western blot analysis of liver homogenates from non-infected mice in AL and DR diets (top panel), and non-infected mice 1 hr after injection of salicylate or vehicle (bottom panel). Lane numbers 1-3 correlate to liver homogenates from individual mice. Representative blot probing with anti-phospho AMPKα (pAMPKα^T172), and -actin antibodies.
Example 2. […] Western blot analysis of AMPK phosphorylation in liver homogenates from non-infected C57BL/6 mice in AL end DR diets, and non-infected mice one hour after injection of salicylate or vehicle. Livers were homogenized in ice-cold lysis buffer (50 mM HEPES, 150 mM NaCl, 10 mM NaF, 1 mM Sodium pyrophosphate, 0.5 mM EDTA, 1 mM DTT, 1% triton, 1 mM Na3VO4, 250 mM Sucrose, protease inhibitor cocktail and phosphatase inhibitors). Total protein content in each homogenate was measured by Bradford Assay (Bio-Rad), according to manufacturer's instructions. 50 μg of total liver lysates were resolved on either 8% SDS-PAGE or Any kD™ Mini-PROTEAN® precast gels (Bio-Rad) and transferred to a nitrocellulose membrane using standard wet transfer with 1× Tris-Glycine buffer containing 20% methanol for 2 hr at 100 V constant or were transferred using iBlot® gel Transfer Stacks (ThermoFisher). […]
pAMPK was detected using rabbit anti-phospho-AMPKα T172 (mAb 40H9.1:1000, Cell Signaling Technology) (incubation for overnight at 4° C). […]

[2] = system: P. berghei wild-type (wt) and complemented Δkin (Δkin+kin) parasites; experiment: In vitro schizont maturation, merozoites per segmented schizont (wild-type and complemented Δkin); type: cell-based, Plasmodium berghei; conditions: 625 μM, 24 h in vitro, medium with 25% fetal bovine serum
Description: (§1) FIG. 7A exemplifies microscopy analysis and quantification of the number of merozoites per segmented schizont in P. berghei wild-type (wt), Δkin and complemented Δkin (Δkin+kin) parasites. Blood-stage parasites were allowed to mature for 24 hours into schizonts in vitro with medium supplemented with AL and CR sera. KIN is the AMPK homologue in Plasmodium parasites. ****p<0.0001.
(§2) Example 5. The AMPK homologue, KIN, regulates the CR effect in Plasmodium parasites. P. berghei parasite wild-type respond to CR by decreasing the number of daughter merozoites on each cycle. […] The CR effect phenotype can be rescued by reintroducing the kin gene into Δkin parasite line.
(§3) P. berghei blood-stage parasites can be maintained in vitro for only one developmental cycle (20-24 h), in which ring forms develop into mature schizonts, without bursting. Infected blood was obtained from in vivo infections containing mainly ring-stage forms at 1-3% parasitemia. Parasites were cultured in RPMI1640 medium containing 25 mM HEPES, 0.05 mg/ml Gentamicin or Penicillin/Streptomycin (all Gibco/Invitrogen), in 96-well plates. […] Parasite development and the number of merozoites per schizont were then assessed using light microscopy and image (http://rsbweb.nih.gov/ij/). Only mature schizont (segmenters) with clearly separated merozoites were scored.

[3] = system: P. berghei Δkin parasites; experiment: In vitro schizont maturation, merozoites per segmented schizont (Δkin); type: cell-based, Plasmodium berghei; conditions: 24 h in vitro, medium with 25% fetal bovine serum
Description: as §1, §2, §3

P. berghei sporozoites [4] = experiment: Relative parasitemia after P. berghei sporozoite (liver-stage) infection of mice; type: in vivo, C57BL/6 mice; conditions: 72 h.p.i., vs control
Description: Relative parasitemia in C57BL/6 mice that were infected with freshly dissected P. berghei sporozoites, and treated with salicylate or metformin, or maintained under control conditions. Salicylate (300 mg/Kg) was administered by i.p. injection once daily, starting one hour before infection, Metformin (500 mg/Kg) was provided in the drinking water for one week prior and during infection, (≥10 mice/group; each dot represents, one mouse). ***p<0.001; ****p<0.0001.
Parasitemia was determined by flow cytometry analysis (BD FACSCAlibur200 or BD LSRFortessa®) of one drop of tail blood in PBS from C57BL/6 mice that were infected with GFP-expressing P. berghei parasites, and maintained on either AL or CR diets. Analysis on FlowJo® followed. The number of acquired total events ranged from 100-200 thousand. […] The GFP-expressing parasites were detected in the FITC channel. False GFP positive ceils (erythrocyte's auto-fluorescence) were eliminated by plotting FITC against PE.
Relative parasitemia in C57BL/6 mice at 72 hours post infection (h.p.i) with freshly dissected P. berghei sporozoites, was determined by flow cytometry analysis (as described in Example 1) for mice treated with either salicylate or metformin, or maintained under control, untreated conditions. […]

P. berghei sporozoites [5] = experiment: Survival of P. berghei sporozoite-infected mice; type: in vivo, C57BL/6 mice; conditions: 15-day period
Source text: FIG. 6 exemplifies that treatment with AMPK agonists protects P. berghei infected mice from severe malaria, leading to improved survival, C57BL/6 mice were infected and treated as in FIG. 5 (≥10 mice/group; p<0.05).
Example 4. Improved survival of parasite-infected mice treated with AMPK agonists. To determine the effect of the AMPK activators, salicylate and metformin, on animal survival over a 15-day period following parasite infection, C57BL/6 mice were infected by i.d. injection of 5×10^3 P. berghei sporozoites. Salicylate (300 mg/Kg, Sigma No. 71945) was administered by i.p. injection once daily, starting one hour before infection. Metformin (500 mg/Kg. Sigma No D150959) was provided in the drinking water for one week prior to, and during, infection.

[6] = 300 mg/Kg i.p. once daily, starting one hour before infection

For `N#Cc1c(O)c2c(-c3ccc(-c4ccccc4O)cc3)csc2[nH]c1=O` [A769662], which IC50 ([1]; 96 hours post-treatment) is on record?
Its IC50 is 71 µM.

Which “AMPK phosphorylation (pAMPKα T172) in liver” value (AMPKα (pAMPKα T172)) does the source give for `O=C(O)c1ccccc1O` [salicylate] here?
The value was “activation of AMPK”.

And the IC50 ([1]; 96 hours post-treatment)?
The IC50 was 1300 µM.

What about the “Parasite replication (merozoites per schizont)” value [2] of the same compound?
The value was “reduced parasite replication; also recorded: reduce replication”.

And the “Parasite replication (merozoites per schizont)” value [3]?
Its value is “fail to respond”.

What about the “Relative parasitemia (liver-stage infection)” value (P. berghei sporozoites [4]; [6]) of the same compound?
Its value is “reduction of P. berghei liver-stage infection”.

What about the Survival rate (P. berghei sporozoites [5]; [6]) of the same compound?
The Survival rate was “significant increases in the survival rates”.

Which IC50 ([1]; 72 hours post-treatment) does the source give for `O=C(Nc1ccccc1-c1cn2c(CN3CCNCC3)csc2n1)c1cnc2ccccc2n1` [SRT1720] here?
Its IC50 is 0.786 µM.

How did the IC50 ([1]; Plasmodium falciparum, 72 hours post-treatment) turn out when `Oc1ccc(C=Cc2cc(O)cc(O)c2)cc1` [resveratrol] was run?
The IC50 was 32 µM.

`CN(C)C(=N)N=C(N)N` [metformin] was tested. Which IC50 ([1]; Plasmodium falciparum, 96 hours post-treatment) did it give?
The IC50 was 868 µM.

And the “Relative parasitemia (liver-stage infection)” value (P. berghei sporozoites [4]; 500 mg/Kg in drinking water for one week prior and during infection)?
The value was “reduction of P. berghei liver-stage infection”.

What about the Survival rate (P. berghei sporozoites [5]; 500 mg/Kg in drinking water for one week prior to and during infection) of the same compound?
Its Survival rate is “significant increases in the survival rates”.
